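Each compound was tested at five concentrations against cells in 96-well plates for 48 hours. GI50 is the concentration that inhibits growth by half.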 Calls of active or inactive are those of the source. Cut-off read from the data, not from the text of the source: active = GI50 up to about 1.1 µM and inactive = higher.
Assays:
Test in all cases: NCI tumour cell line growth inhibition, 48 h
NCI-H226 = test system: NCI-H226
MOLT-4 = test system: MOLT-4
HCT-116 = test system: HCT-116
SK-MEL-5 = test system: SK-MEL-5
SN12C = test system: SN12C
SF-268 = test system: SF-268
PC-3 = test system: PC-3
DLD-1 = test system: DLD-1
IGROV-1 = test system: IGROV-1
ACHN = test system: ACHN
SF-295 = test system: SF-295
SK-OV-3 = test system: SK-OV-3
HOP-62 = test system: HOP-62
OVCAR-3 = test system: OVCAR-3
COLO 205 = test system: COLO 205
A549 = test system: A549
SF-539 = test system: SF-539
M14 = test system: M14
A498 = test system: A498
MCF7 = test system: MCF7

Compound | GI50 (NCI-H226) | GI50 (MOLT-4) | GI50 (HCT-116) | GI50 (SK-MEL-5) | GI50 (SN12C) | GI50 (SF-268) | GI50 (PC-3) | GI50 (DLD-1) | GI50 (IGROV-1) | GI50 (ACHN) | GI50 (SF-295) | GI50 (SK-OV-3) | GI50 (HOP-62) | GI50 (OVCAR-3) | GI50 (COLO 205) | GI50 (A549) | GI50 (SF-539) | GI50 (M14) | GI50 (A498) | GI50 (MCF7)
O=c1[nH]c2ccccc2nc1CBr | 15.8 µM (inactive) | 1.87 µM (inactive) | 8.39 µM (inactive) | 10.8 µM (inactive) | 9.38 µM (inactive) | 11.1 µM (inactive) | 12.6 µM (inactive) | 8.87 µM (inactive) | 4.22 µM (inactive) | 12.3 µM (inactive) | 12.6 µM (inactive) | 21.5 µM (inactive) | 21.3 µM (inactive) | 1.57 µM (inactive) | 5.78 µM (inactive) | 14.4 µM (inactive) | 9.23 µM (inactive) | 10.6 µM (inactive) | 21.8 µM (inactive) | –
C=C1C(=O)C23CC1CCC2C12CO[C@@]3(O)[C@@H](O)C1C(C)(C)C=CC2=O (some centres not stated) | 6.44 µM (inactive) | 0.281 µM (active) | 0.488 µM (active) | 6.65 µM (inactive) | 1.15 µM (inactive) | 1.65 µM (inactive) | 2.74 µM (inactive) | 0.721 µM (active) | 3.94 µM (inactive) | 0.774 µM (active) | 1.48 µM (inactive) | 7.53 µM (inactive) | 7.41 µM (inactive) | 1.11 µM (active) | 0.714 µM (active) | 2.03 µM (inactive) | 0.861 µM (active) | 2.75 µM (inactive) | > 10 µM (inactive) | 2.44 µM (inactive)
Cc1[nH]c(=O)[nH]c(=O)c1N(CCF)CCCl [FLUORODOPAN] | 560 µM (inactive) | – | 439 µM (inactive) | 196 µM (inactive) | – | 290 µM (inactive) | 363 µM (inactive) | 384 µM (inactive) | 441 µM (inactive) | 190 µM (inactive) | 284 µM (inactive) | 536 µM (inactive) | 318 µM (inactive) | 442 µM (inactive) | 394 µM (inactive) | 265 µM (inactive) | 199 µM (inactive) | 381 µM (inactive) | 418 µM (inactive) | 256 µM (inactive)

Reference: ChEMBL document CHEMBL1201862, “PubChem BioAssay data set” (2004)
